Experimental data published in US20080175794A1, “Substituted Pyridazinyl- and Pyrimidinyl-Quinolin-4-Ylamine Analogues” (NEUROGEN CORPORATION, priority 2005, published 2008).

The compounds below were run against T1, human capsaicin receptor (Homo sapiens, UniProt Q8NER1) (assay: Calcium mobilization assay, determination of antagonist activity (Example 6)). Settings: Table III; assay provided in Example 6; cells expressing human capsaicin receptor, capsaicin at EC50.
T1 construct: expressed in transfected cells
T1 sequence (Q8NER1 whole entry): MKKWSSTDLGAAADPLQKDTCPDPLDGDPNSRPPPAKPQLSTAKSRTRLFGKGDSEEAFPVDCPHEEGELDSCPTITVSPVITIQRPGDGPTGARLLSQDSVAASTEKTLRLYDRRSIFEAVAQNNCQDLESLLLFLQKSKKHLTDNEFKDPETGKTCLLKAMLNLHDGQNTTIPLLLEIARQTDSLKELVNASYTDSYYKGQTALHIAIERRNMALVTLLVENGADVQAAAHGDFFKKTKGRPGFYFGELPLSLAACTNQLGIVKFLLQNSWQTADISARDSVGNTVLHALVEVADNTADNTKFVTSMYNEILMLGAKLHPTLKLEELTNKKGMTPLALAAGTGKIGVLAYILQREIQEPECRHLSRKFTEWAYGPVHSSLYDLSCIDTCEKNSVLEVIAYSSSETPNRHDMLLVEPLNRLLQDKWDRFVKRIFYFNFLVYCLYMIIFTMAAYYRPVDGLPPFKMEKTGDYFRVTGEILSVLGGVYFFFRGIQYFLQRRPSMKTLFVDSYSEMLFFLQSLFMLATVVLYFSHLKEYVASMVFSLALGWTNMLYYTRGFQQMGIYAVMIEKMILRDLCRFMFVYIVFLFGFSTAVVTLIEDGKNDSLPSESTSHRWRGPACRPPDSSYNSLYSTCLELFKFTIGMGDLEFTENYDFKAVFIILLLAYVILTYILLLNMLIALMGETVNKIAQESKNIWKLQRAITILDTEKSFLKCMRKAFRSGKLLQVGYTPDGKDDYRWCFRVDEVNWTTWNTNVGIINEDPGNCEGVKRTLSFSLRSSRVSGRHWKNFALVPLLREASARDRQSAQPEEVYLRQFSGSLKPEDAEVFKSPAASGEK
Assay type: cell-based
Method: A cDNA encoding full length human capsaicin receptor (SEQ ID NO:1, 2 or 3 of U.S. Pat. No. 6,482,611) is subcloned in the plasmid pBK-CMV (Stratagene, La Jolla, Calif.) for recombinant expression in mammalian cells.
Human embryonic kidney (HEK293) cells are transfected with the pBK-CMV expression construct encoding the full length human capsaicin receptor using standard methods. The transfected cells are selected over two weeks in media containing G418 (400 μg/ml) to obtain a pool of stably transfected cells. Independent clones are isolated from this pool by limiting dilution to obtain clonal stable cell lines for use in subsequent experiments.
Cells transfected with expression plasmids (as described in Example 4) and thereby expressing human capsaicin receptor are seeded and grown to 70-90% confluency in FALCON black-walled, clear-bottomed 96-well plates (#3904, BECTON-DICKINSON, Franklin Lakes, N.J.). The culture medium is emptied from the 96 well plates and FLUO-3 AM calcium sensitive dye (Molecular Probes, Eugene, Oreg.) is added to each well (dye solution: 1 mg FLUO-3 AM, 440 μL DMSO and 440 μl 20% pluronic acid in DMSO, diluted 1:250 in Krebs-Ringer HEPES (KRH) buffer (25 mM HEPES, […], 0.96 mM NaH2PO4, 1 mM MgSO4, 2 mM CaCl2, 5 mM glucose, 1 mM probenecid, pH 7.4), 50 μl diluted solution per well). Plates are covered with aluminum foil and incubated at 37° C. for 1-2 hours in an environment containing 5% CO2. After the incubation, the dye is emptied from the plates, and the cells are washed once with KRH buffer, and resuspended in KRH buffer.
To measure the ability of a test compound to agonize or antagonize a calcium mobilization response in cells expressing capsaicin receptors to capsaicin or other vanilloid agonist, the EC50 of the agonist capsaicin is first determined. An additional 20 μl of KRH buffer and 1 μl DMSO is added to each well of cells, prepared as described above. 100 μl capsaicin in KRH buffer is automatically transferred by the FLIPR instrument to each well. Capsaicin-induced calcium mobilization is monitored using either FLUOROSKAN ASCENT (Labsystems; Franklin, Mass.) or FLIPR (fluorometric imaging plate reader system; Molecular Devices, Sunnyvale, Calif.) instruments. Data obtained between 30 and 60 seconds after agonist application are used to generate an 8-point concentration response curve, with final capsaicin concentrations of 1 nM to 3 μM. KALEIDAGRAPH software (Synergy Software, Reading, Pa.) is used to fit the data to the equation: […]
Test compounds are dissolved in DMSO, diluted in 20 μl KRH buffer so that the final concentration of test compounds in the assay well is between […] and 5 μM, and added to cells prepared as described above. The 96 well plates containing prepared cells and test compounds are incubated in the dark at room temperature for 0.5 to 6 hours. It is important that the incubation not continue beyond 6 hours. Just prior to determining the fluorescence response, 100 μl capsaicin in KRH buffer at twice the EC50 concentration determined as described above is automatically added by the FLIPR instrument to each well of the 96 well plate for a final sample volume of 200 μl and a final capsaicin concentration equal to the EC50. The final concentration of test compounds in the assay wells is between 1 μM and 5 μM. […] The concentration of antagonist required to provide a 50% decrease, relative to the response observed in the presence of capsaicin and without antagonist, is the IC50 for the antagonist, and is preferably below 1 micromolar, 100 nanomolar, 10 nanomolar or 1 nanomolar.

IC50, < 1 µM:
CC(O)CNc1cc(C(F)(F)F)c(-c2cnc3c(Nc4ccc(C(F)(F)F)cn4)ccnc3n2)nn1 (centres unmarked) [Compound 116, 1-{[5-(trifluoromethyl)-6-(8-{[5-(trifluoromethyl)pyridin-2-yl]amino}pyrido[2,3-b]pyrazin-3-yl)pyridazin-3-yl]amino}propan-2-ol]
CC(C)CCNc1cc(C(F)(F)F)c(-c2cnc3c(Nc4ccc(C(F)(F)F)cn4)ccnc3n2)nn1 [Compound 106, 3-{6-[(3-methylbutyl)amino]-4-(trifluoromethyl)pyridazin-3-yl}-N-[5-(trifluoromethyl)pyridin-2-yl]pyrido[2,3-b]pyrazin-8-amine]
CCC(C)Nc1cc(C(F)(F)F)c(-c2cnc3c(Nc4ccc(C(F)(F)F)cn4)ccnc3n2)nn1 (centres unmarked) [Compound 108, 3-[6-(sec-butylamino)-4-(trifluoromethyl)pyridazin-3-yl]-N-[5-(trifluoromethyl)pyridin-2-yl]pyrido[2,3-b]pyrazin-8-amine]
FC(F)(F)c1ccc(Nc2ccnc3nc(-c4nnc(NC5CCC5)cc4C(F)(F)F)cnc23)nc1 [Compound 107, 3-[6-(cyclobutylamino)-4-(trifluoromethyl)pyridazin-3-yl]-N-[5-(trifluoromethyl)pyridin-2-yl]pyrido[2,3-b]pyrazin-8-amine]
FC(F)(F)c1ccc(Nc2ccnc3nc(-c4nnc(NCC5CC5)cc4C(F)(F)F)cnc23)nc1 [Compound 103, 3-{6-[(cyclopropylmethyl)amino]-4-(trifluoromethyl)pyridazin-3-yl}-N-[5-(trifluoromethyl)pyridin-2-yl]pyrido[2,3-b]pyrazin-8-amine]
OCCOc1cc(C(F)(F)F)c(-c2cnc3c(Nc4ccc(C(F)(F)F)cn4)ccnc3n2)nn1 [Compound 63, 2-{[5-(trifluoromethyl)-6-(8-{[5-(trifluoromethyl)pyridin-2-yl]amino}pyrido[2,3-b]pyrazin-3-yl)pyridazin-3-yl]oxy}ethanol]
FC(F)(F)c1ccc(Nc2ccnc3nc(-c4nnc(N5CCCCCC5)cc4C(F)(F)F)cnc23)nc1 [Compound 178, 3-[6-azepan-1-yl-4-(trifluoromethyl)pyridazin-3-yl]-N-[5-(trifluoromethyl)pyridin-2-yl]pyrido[2,3-b]pyrazin-8-amine]
OCCCCCNc1cc(C(F)(F)F)c(-c2cnc3c(Nc4ccc(C(F)(F)F)cn4)ccnc3n2)nn1 [Compound 115, 5-{[5-(trifluoromethyl)-6-(8-{[5-(trifluoromethyl)pyridin-2-yl]amino}pyrido[2,3-b]pyrazin-3-yl)pyridazin-3-yl]amino}pentan-1-ol]
CCNc1cc(C(F)(F)F)c(-c2cnc3c(Nc4ccc(C(F)(F)F)cn4)ccnc3n2)nn1 [Compound 101, 3-[6-(ethylamino)-4-(trifluoromethyl)pyridazin-3-yl]-N-[5-(trifluoromethyl)pyridin-2-yl]pyrido[2,3-b]pyrazin-8-amine]
OCCCCNc1cc(C(F)(F)F)c(-c2cnc3c(Nc4ccc(C(F)(F)F)cn4)ccnc3n2)nn1 [Compound 172, 4-{[5-(trifluoromethyl)-6-(8-{[5-(trifluoromethyl)pyridin-2-yl]amino}pyrido[2,3-b]pyrazin-3-yl)pyridazin-3-yl]amino}butan-1-ol]
CC(O)CCNc1cc(C(F)(F)F)c(-c2cnc3c(Nc4ccc(C(F)(F)F)cn4)ccnc3n2)nn1 (centres unmarked) [Compound 174, 4-{[5-(trifluoromethyl)-6-(8-{[5-(trifluoromethyl)pyridin-2-yl]amino}pyrido[2,3-b]pyrazin-3-yl)pyridazin-3-yl]amino}butan-2-ol]
CN(C)CCCOc1cc(C(F)(F)F)c(-c2cnc3c(Nc4ccc(C(F)(F)F)cn4)ccnc3n2)nn1 [Compound 64, 3-{6-[3-(dimethylamino)propoxy]-4-(trifluoromethyl)pyridazin-3-yl}-N-[5-(trifluoromethyl)pyridin-2-yl]pyrido[2,3-b]pyrazin-8-amine]
CC(C)Nc1cc(C(F)(F)F)c(-c2cnc3c(Nc4ccc(C(F)(F)F)cn4)ccnc3n2)nn1 [Compound 157, 3-[6-(isopropylamino)-4-(trifluoromethyl)pyridazin-3-yl]-N-[5-(trifluoromethyl)pyridin-2-yl]pyrido[2,3-b]pyrazin-8-amine]
CN(C)C(=O)CN(C)c1cc(C(F)(F)F)c(-c2cnc3c(Nc4ccc(C(F)(F)F)cn4)ccnc3n2)nn1 [Compound 59, N,N,N2-trimethyl-N2-[5-(trifluoromethyl)-6-(8-{[5-(trifluoromethyl)pyridin-2-yl]amino}pyrido[2,3-b]pyrazin-3-yl)pyridazin-3-yl]glycinamide]
FC(F)(F)c1ccc(Nc2ccnc3nc(-c4nnc(N5CCCCC5)cc4C(F)(F)F)cnc23)nc1 [Compound 176, 3-[6-piperidin-1-yl-4-(trifluoromethyl)pyridazin-3-yl]-N-[5-(trifluoromethyl)pyridin-2-yl]pyrido[2,3-b]pyrazin-8-amine]
CN(CCOCCO)c1cc(C(F)(F)F)c(-c2cnc3c(Nc4ccc(C(F)(F)F)cn4)ccnc3n2)nn1 [Compound 67, 2-(2-{methyl[5-(trifluoromethyl)-6-(8-{[5-(trifluoromethyl)pyridin-2-yl]amino}pyrido[2,3-b]pyrazin-3-yl)pyridazin-3-yl]amino}ethoxy)ethanol]
CN1CCCC1CCNc1cc(C(F)(F)F)c(-c2cnc3c(Nc4ccc(C(F)(F)F)cn4)ccnc3n2)nn1 (centres unmarked) [Compound 72, 3-[6-{[2-(1-methylpyrrolidin-2-yl)ethyl]amino}-4-(trifluoromethyl)pyridazin-3-yl]-N-[5-(trifluoromethyl)pyridin-2-yl]pyrido[2,3-b]pyrazin-8-amine]
CC1(C)CCN1c1cc(C(F)(F)F)c(-c2cnc3c(Nc4ccc(C(F)(F)F)cn4)ccnc3n2)nn1 [Compound 131, 3-[6-(2,2-dimethylazetidin-1-yl)-4-(trifluoromethyl)pyridazin-3-yl]-N-[5-(trifluoromethyl)pyridin-2-yl]pyrido[2,3-b]pyrazin-8-amine]
OCCNc1cc(C(F)(F)F)c(-c2cnc3c(Nc4ccc(C(F)(F)F)cn4)ccnc3n2)nn1 [Compound 168, 2-{[5-(trifluoromethyl)-6-(8-{[5-(trifluoromethyl)pyridin-2-yl]amino}pyrido[2,3-b]pyrazin-3-yl)pyridazin-3-yl]amino}ethanol]
CCN(CC)c1cc(C(F)(F)F)c(-c2cnc3c(Nc4ccc(C(F)(F)F)cn4)ccnc3n2)nn1 [Compound 126, 3-[6-(diethylamino)-4-(trifluoromethyl)pyridazin-3-yl]-N-[5-(trifluoromethyl)pyridin-2-yl]pyrido[2,3-b]pyrazin-8-amine]
CC(C)(CO)Nc1cc(C(F)(F)F)c(-c2cnc3c(Nc4ccc(C(F)(F)F)cn4)ccnc3n2)nn1 [Compound 171, 2-methyl-2-{[5-(trifluoromethyl)-6-(8-{[5-(trifluoromethyl)pyridin-2-yl]amino}pyrido[2,3-b]pyrazin-3-yl)pyridazin-3-yl]amino}propan-1-ol]
CCOc1nc(Nc2ccnc3nc(-c4nnccc4C(F)(F)F)cnc23)ccc1C(F)(F)F [Compound 44, N-[6-ethoxy-5-(trifluoromethyl)-2-pyridinyl]-3-[4-(trifluoromethyl)-3-pyridazinyl]pyrido[2,3-b]pyrazin-8-amine]
CCN(CC)CCN(CC)c1cc(C(F)(F)F)c(-c2cnc3c(Nc4ccc(C(F)(F)F)cn4)ccnc3n2)nn1 [Compound 99, N,N,N′-triethyl-N′-[5-(trifluoromethyl)-6-(8-{[5-(trifluoromethyl)pyridin-2-yl]amino}pyrido[2,3-b]pyrazin-3-yl)pyridazin-3-yl]ethane-1,2-diamine]
